From patent US20240215873A1, “Aptamer Sensors with Temperature Correction” (University of Cincinnati, priority 2021, published 2024)

Details: room temperature; saturated concentration of target analyte; 20 mM tris buffer
Method: The sensors were all interrogated in 20 mM tris buffer (20 mM trizma base, 100 mM NaCl and 5 mM MgCl2). FIG. 5 illustrates the equilibration of a sensor response with or without the presence of analyte target such as ATP, Tobramycin, or Cocaine.
The aptamers were equilibrated, interrogated, and regenerated in tris buffer at 1° C., 22° C. and 37° C. […] The performance of each E-AB sensor was characterized to determine their expected response in room temperature (RT).
To fabricate the E-AB sensors, the 2 mm diameter gold disk macro electrodes (CH Instruments, Austin, TX) were hand polished for 2 min in a 1 μm diamond slurry (Buehler, Lake Bluff, IL) followed by polishing for 2 min in 0.05 μm alumina oxide slurry (Buehler, Lake Bluff, IL). All electrodes were rinsed with ultrapure water (Milli-Q Ultrapure Water Purification, Millipore, Billerica, MA, U.S.A.). To remove particulates, the electrodes were sonicated in a low power sonicator for 5 min. Next, the electrodes were electrochemically cleaned in various concentrations of sodium hydroxide and sulfuric acid solutions. Sensor fabrication consists of numerous steps of incubation. First, 2 uL of 100 mM TCEP was added to 1 μL of aptamer and left to incubate for 1 h to perform a disulfide bond reaction. […]

cocaine
percent signal change (increase in current): 56%
